# Assay results taken from paper PMC12481569, “Novltex: A New Class of Antibiotics with Potent Activity against Multidrug-Resistant Bacterial Pathogens–Design, Synthesis, and Biological Evaluation” (Journal of Medicinal Chemistry, 2025).
# Positions of bridges follow the written chain, without caps; N, C: chain ends. Non-standard residues stand in square brackets, D forms with d. Residues, ends and D or L forms follow the SMILES beside them. dCha = N[C@H](CC1CCCCC1)C(=O)O
# How the values were obtained:
# MRSA DM21455 = test: Cytoplasmic membrane potential DiSC3(5) assay; assay type: cell-based, Staphylococcus aureus; conditions: 1× to 16× MIC, 1 h, room temperature, ex 622/em 670 nm; pronounced at 4× MIC
# Description: To determine whether the bactericidal activity of analogue 12 is linked to bacterial membrane perturbations, we performed a DiSC3(5) assay, which utilizes a membrane-potential-sensitive dye to assess cytoplasmic membrane depolarization of MRSA. […]
# day, cells were treated in triplicates with increasing concentrations of Novltex analogue 12, as indicated in the corresponding figure and the figure legend (Figure 4A-C). Cells were treated with 1 µM Staurosporine (MedChemExpress #HY-15141) as a positive kill control. Cell viability assessed after 24 h or 48 h incubation using an MTS-based CellTiter 96® AQueous One Solution Cell Proliferation Assay (Promega #G3582, Southampton UK) as per manufacturer’s instructions. Absorbance was recorded at 490 nm. Relative cell viability was determined by subtracting the blank (cell culture medium and MTS only) from individual values before normalizing against the untreated control.
# Anonymized human blood samples were received from the Health Sciences Authority, Singapore and used as per the institutional guidelines and approved by the Institutional Review Board (IRB -2023-1019) of Nanyang Technological University Singapore. […] The supernatant was transferred to a new 96-well microplate and the absorbance was measured at 576 nm in the Infinite M200 monochromator microplate reader (Tecan Group Ltd., Switzerland). […]
# [1] = system: human primary dermal fibroblasts; test: Cytotoxicity, MTS-based assay; assay type: cell-based; conditions: up to 50 μg/mL, 24 or 48 h, three independent experiments in triplicate
# Description: 4 Cytotoxicity evaluation of analogue 12. Human primary dermal fibroblasts (A), liver cell line HepG2 (B), and kidney cell line HEK293T (C) cells (5 × 10^3 cells/well in 96-well plates) were treated with increasing concentrations of analogue 12 or 1 μM staurosporine (STS, used as a positive toxicity control) for 24 or 48 h, as indicated. Viability of cells was determined using an MTS-based assay. Results (% cell viability) are the mean ± SD of three independent experiments performed in triplicate. (D) Freshly collected human red blood cells (RBCs) were exposed to increasing concentrations of 12 or Triton X-100 (TX), as indicated, for 1 h. Hemolytic activity (% hemolysis) was determined by spectrophotometrically measuring the release of hemoglobin compared to that with TX (used as a positive control). Results are the mean ± SD of 4 independent experiments performed in duplicate using blood samples from four different anonymous healthy donors. […]
# Bacterial cultures were grown overnight on Mueller-Hinton Agar (MHA) plates and adjusted to a final inoculum of 10^5 – 10^6 CFU/mL. […] MIC values were determined in the media contain ing polysorbate 80 (0.002%, v/v) to prevent non -specific adsorption of the peptides to plastic surfaces. […] All the experiments were performed in two independent duplicates and the MIC was determined as the lowest concentration in which no visible growth was observed. […]
smiles,measurement,setting,value
"CC(C)C[C@@H]1NC(=O)[C@H](C)NC(=O)[C@H](NC(=O)[C@H](CO)NC(=O)[C@@H](CCCCN)NC(=O)[C@@H](CC2CCCCC2)NC(=O)[C@@H](N)Cc2ccccc2)[C@H](C)OC(=O)[C@H](CC(C)C)NC1=O [analogue 12, Leu2Cha–Novltex] (H-F[dCha][dK]S[dT]ALL; ester 5-C)",change in DiSC3(5) fluorescence intensity (membrane depolarization),MRSA DM21455,substantial increase in fluorescence intensity
same,"cytotoxicity (cell viability), primary dermal fibroblasts",[1],no major cytotoxicity
